# Source: a melting point compilation (Tetko et al.)
row,Structure (SMILES),melting point [°C]
1,COC(=O)Cn1cnc2c(N)ncnc21,228 to 230
2,Nc1c(F)cc(Cl)cc1F,44 to 46
3,CC1N=C(S)N(Cc2ccccc2)C1=O (centres undefined),< 17
4,COC(=O)c1cnc(Cl)c(S(=O)(=O)N2CCOCC2)c1,132 to 134
5,CCc1cc(N)c2cc(N)ccc2n1,151 to 153
6,O=C(O)C1=COCCC1,71 to 73
7,NNC(=O)c1cc(F)ccc1Br,149 to 151
8,Cc1cc(CC#N)c(C)n1-c1ccc(Cl)cc1,74 to 76
9,CCSCc1ccc(C(=O)O)cc1,123 to 125
10,CNCc1ccc(OC)c(O)c1,141 to 143
11,Nc1ccc(Oc2cccc(F)c2)c2ccncc12,137 to 139
12,Cc1nc(C(=O)N(C)C)ccc1C(=O)O,136 to 138
13,N#Cc1c(OCCO)n[nH]c1N,163 to 165
14,COc1ccc(C=O)cc1OCC1CC1,68 to 70
15,N#Cc1c(NC(=O)CCl)sc2c1CCC2,176 to 178
16,O=C(O)CCc1ccc2c(c1)CCO2,92 to 94
17,Cc1nn(CCCl)c(C)c1C=O,49 to 51
18,O=C(O)CCCCc1ccc(I)cc1,109 to 111
19,O=C(O)c1cc(C(F)(F)F)ccc1SC1CCCC1,174 to 176
20,Cc1csc(C2(O)C(=O)N(Cc3ccccc3)CC2C(=O)O)n1 (centres undefined),109 to 111
21,NS(=O)(=O)C#Cc1ccccc1,136 to 138
22,Fc1ccc2nc(NCc3ccccc3)sc2c1,182 to 184
23,CC(C)(C)OC(=O)Nc1cccc2c1OCO2,89 to 91
24,O=C1CCS(=O)(=O)c2ccc(F)cc21,163 to 167

row,Structure (SMILES),melting point [°C]
1,CC(=O)NCCc1cc(C(=O)CCl)ccc1F,97 to 99
2,Nc1cccc(-c2cc[nH]n2)c1,137 to 139
3,O=C(O)c1ccc2nc(S)oc2c1,295 to 297
4,NNC(=O)CO,90 to 92
5,O=C(O)Cc1cccc(OCc2ccncc2)c1,138 to 140
6,CC(C)c1ccc(S(=O)(=O)N2CC(O)CC2C(=O)O)cc1 (centres undefined),153 to 155
7,CC(C)Oc1cc(C(=O)O)ccn1,145 to 147
8,O=C(O)C1CCS(=O)(=O)CC1,184 to 186
9,Cc1cnn(-c2ccc(C(N)=O)cc2N)c1,164 to 166
10,c1ccc(CN(Cc2ccccc2)Cn2nnc3ccccc32)cc1,118 to 120
11,CC(=O)CC(=O)c1ccncc1,63 to 65
12,O=C(O)c1ccc(COc2cccc(Br)c2)o1,171 to 173
13,O=c1oc2ccccc2c(Cl)c1[N+](=O)[O-],160 to 162
14,NC(=O)CC1CC2CCC1C2 (centres undefined),152 to 154
15,CC(=O)c1ccc(OCC(=O)Nc2ccccc2)cc1,94 to 96
16,Nc1ccccc1N1C(=O)c2ccc(Br)cc2C1=O,219 to 221
17,Cn1cnc2cc(C=O)ccc21,99 to 101
18,CC(C)C(Nc1ccc(C(F)(F)F)cc1Cl)C(=O)O (centres undefined),128 to 132
19,O=C(O)COc1ccc(Cl)cc1Br,123 to 125
20,O=C(O)CCNC(=O)c1ccc2cn[nH]c2c1,234 to 236
21,Cc1ccc(-n2cc(C(=O)O)c(C(C)(C)C)n2)cc1,218 to 220
22,O=C(O)C1CC(=O)N(c2ccc3c(c2)CCC3)C1 (centres undefined),179 to 181
23,Cc1cc(S)nc(C(C)C)n1,160 to 164
24,Cc1n[nH]c(C2CCCCC2)n1,127 to 129

row,Structure (SMILES),melting point [°C]
1,CCOC(=O)c1c(-c2ccccc2Cl)csc1N,65 to 73
2,Cc1nc(-c2ccccc2)oc1C(=O)O,244 to 246
3,CN(C)c1ccc(N2C(=O)C=CC2=O)cc1,152 to 154
4,O=C(O)c1cn(-c2ccc(Br)cc2Cl)nn1,144 to 146
5,O=C(Nc1ccccc1C(=O)O)c1cccc(Br)c1,189 to 191
6,CCCS(=O)(=O)NC(C(=O)OCC)C(=O)OCC,40 to 42
7,O=C(O)c1cc(N2CCCC2=O)ccc1Cl,159 to 161
8,O=C(O)c1ccc2c(c1)C(=O)N(C1CCS(=O)(=O)C1)C2=O (centres undefined),239 to 241
9,O=C(O)c1cnn(CCCl)c1,147 to 149
10,O=C(CCl)NC1CCN(C(=O)C2CCCCC2)CC1,133 to 135
11,CCNC(=O)CN(CC)C(=O)CCl,246 to 248
12,COC(=O)C(=O)CC(=O)c1ccc(OC)cc1OC,101 to 103
13,O=C(O)CCCc1ccc2c(c1)-c1ccccc1C2,151 to 153
14,COc1ccc(CN2CCCC2)cc1N,46 to 48
15,Nc1ncc(-c2ccccc2)s1,198 to 200
16,c1ccc(C2COCCN2)cc1 (centres undefined),74 to 76
17,CCN(c1ccccc1)c1ccc(C(=O)O)cc1,178 to 180
18,O=S1(=O)CCCC(O)C1 (centres undefined),99 to 101
19,CC(C)(C)C(=O)Nc1ccc(Cl)c(C(F)(F)F)c1,132 to 134
20,O=Cc1ccccc1-n1cncn1,113 to 115
21,Cc1cc(CO)ncn1,74 to 76
22,CCC(C)n1ncc(C(=O)O)c1C1CC1 (centres undefined),116 to 118
23,O=Cc1ccc(-c2ccc(F)cc2)o1,79 to 81
24,NC(=S)C1CN(C(=O)OCc2ccccc2)CCO1 (centres undefined),147 to 149

row,Structure (SMILES),melting point [°C]
1,O=S1(=O)N=C2CCCCCN2C(c2ccncc2)N1 (centres undefined),176 to 178
2,O=C(CCl)c1ccc(F)c(F)c1,37 to 39
3,CS(=O)(=O)c1ccc(C(=O)O)o1,173 to 175
4,Nc1cc(F)cc(S(N)(=O)=O)c1,153 to 155
5,Cc1nc(C(=O)O)nn1-c1ccccc1,172 to 174
6,CC(C)C(NC(=O)c1ccccc1)c1nn[nH]n1 (centres undefined),176 to 178
7,CCn1c(=O)n(CCC(=O)O)c2ccccc21,179 to 181
8,COc1ccc(C(=O)NN)cc1Br,137 to 139
9,CC(=O)c1ccc(-c2ccc(Cl)c(Cl)c2)cc1,135 to 137
10,Cc1sc([N+](=O)[O-])cc1[N+](=O)[O-],81 to 83
11,CC(Nc1ccc(Cl)nn1)c1ccccc1 (centres undefined),159 to 161
12,O=CC1=C(Sc2ccccc2)CCCC1,42 to 44
13,COc1cc(CN)c2ccccc2n1,79 to 81
14,Cc1cc(C)c(C(=O)CCCC(=O)O)c(C)c1,75 to 77
15,Nc1cc(S(=O)(=O)Nc2ccc(Cl)cc2)ccc1N1CCOCC1,55 to 58
16,CC(Cl)c1nnnn1-c1ccccc1 (centres undefined),95 to 97
17,CN(C(=O)CC#N)C1CCCCC1,88 to 90
18,CC(=O)NC(C)c1ccc(C(=O)CCl)cc1 (centres undefined),152 to 156
19,Cc1cc(I)ccc1[N+](=O)[O-],79 to 81
20,CCN(c1ccccc1)S(=O)(=O)c1ccc(NN)nc1,175 to 177
21,O=C(NCc1cccc(Cl)c1)c1ccc(F)cc1,59 to 61
22,Nc1cccc2[nH]cnc12,110 to 112
23,C=CC(=O)NCc1ccc(C(=O)O)cc1,197 to 199
24,CC(=O)Cn1cnc(C)c1C,80 to 82

row,Structure (SMILES),melting point [°C]
1,COc1cc(C=O)c(Br)cc1O,175 to 177
2,Cc1ccc(Br)c(S(=O)(=O)Cl)c1,57 to 59
3,Nc1nc2cc(S(=O)(=O)N3CCCC3)ccc2o1,240 to 242
4,COc1ccc(CNC(=O)n2ccnc2)cc1OC,136 to 138
5,CC(C)(C)OC(=O)N1CCCc2cccc(O)c21,60 to 62
6,O=C(O)CN(Cc1cccnc1)c1ccccc1,136 to 138
7,CCn1cc(C(=O)C(=O)O)cn1,129 to 131
8,COc1ccc(Nc2n[nH]c(N)c2C#N)cc1,119 to 121
9,CN(C)S(=O)(=O)c1ccc(C#N)cc1,128 to 130
10,Cc1ccc(-n2cc(C)cn2)c(N)c1,49 to 51
11,O=C(O)c1ccc(Cn2ccccc2=O)o1,199 to 201
12,O=C(O)COc1ccc2ccc(=O)oc2c1,213 to 215
13,CCOC(=O)c1cnn(C)c1NC(=O)CCl,90 to 92
14,CC(O)(CN)c1ccc(F)cc1 (centres undefined),69 to 71
15,O=C(Cc1ccc(Br)cc1)C(F)(F)F,38 to 40
16,NCC1(CO)CCOCC1,54 to 56
17,CC(=O)c1ccc2c(c1)CC(=O)N2C,176 to 178
18,Cc1ccc(C(=O)N(C)c2ccc(O)cc2)cc1,115 to 117
19,NCC(CCC(=O)O)C(F)(F)F (centres undefined),155 to 157
20,O=c1c2cc(Cl)cc(Cl)c2nc2n1CCC2,245 to 247
21,Nc1cc(Br)ccc1C(=O)O,222 to 224
22,NCCc1ccc(CO)cc1,35 to 37
23,CN(C)S(=O)(=O)c1cn(C)cn1,119 to 121
24,CN(C)c1ccc(CCC(=O)O)cc1,105 to 107

row,Structure (SMILES),melting point [°C]
1,N#Cc1c(S)nc(CCc2ccccc2)c2c1CCCC2,224 to 226
2,COc1ccccc1-c1noc(CCl)n1,61 to 63
3,O=C(O)c1sc(Cl)nc1Cl,164 to 166
4,CC(C#N)CNC(=O)OC(C)(C)C (centres undefined),77 to 79
5,CC(=O)NC1(c2noc(CCC(=O)O)n2)CCCCCC1,149 to 151
6,CN(CC(=O)O)S(C)(=O)=O,54 to 56
7,CCC(=O)Nc1ccc(O)c(C(=O)O)c1,217 to 219
8,O=c1[nH]c(CCl)nc2scc(-c3ccco3)c12,230 to 232
9,CN1CCC(N(C)c2ccc(N)cc2)CC1,62 to 64
10,Cc1cnc(C#N)nc1,67 to 69
11,O=[N+]([O-])c1ccc(F)c(-n2cnnn2)c1,101 to 103
12,O=C(O)C=Cc1cc(Cl)ccc1OCc1ccccc1Cl,195 to 197
13,CC1=NN(c2ccc(Cl)c(Cl)c2)C(=O)C1,158 to 160
14,Nc1nnc(Cc2ccccc2F)o1,167 to 169
15,COc1cc(OC)cc(Oc2ccc(C=O)cc2)c1,57 to 59
16,CCOC(=O)c1cc(CC)sc1NC(=O)C(C)Cl (centres undefined),57 to 59
17,CCCCNC(=O)CC(N)=NO,95 to 99
18,CC(C)(C)OC(=O)NCc1cc[nH]n1,104 to 106
19,N#CCc1cn(-c2ccccc2)nc1-c1ccc(Cl)cc1,126 to 128
20,CC(C)(C)OC(=O)NC(CO)CO,83 to 85
21,O=S1(=O)CCCN1Cc1ccc(Br)cc1,58 to 60
22,Cc1ccc(C(=O)Cc2ccccn2)cc1,73 to 75
23,COc1ncc(Br)cc1CC(=O)O,129 to 131
24,CC(C)CNc1nnc(S)s1,155 to 157
